In patent US8901315B2, “Thienopyrazole derivative having PDE7 inhibitory activity” (Daiichi Sankyo Company, Limited, priority 2004, dated 2014) one finds IC50 data, which are given here for 21 molecules.

For orientation: IC50 means the point on the concentration scale where inhibition reaches its midpoint.

Counter-ions that a name gives are not always drawn. Like-named read-outs stand apart in the source and are kept apart here.

The target in assay [1] is PDE 7 (phosphodiesterase VII) (Homo sapiens (Human), UniProt Q13946). The assay can be described thus: PDE 7 inhibiting effect (3H-cAMP hydrolysis, PDE 7 active fraction from MOLT-4 cells). The class given is biochemical. The settings on record: read-out: PDE7 IC50. The gist of the method: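 PDE7 taken from the soluble fraction of human MOLT-4 T cells (homogenised in pH 7.5 Tris buffer, 100,000×G spin), partially purified on HiTrap Q with a 0–0.8 M NaCl gradient. Inhibition measured as ³H-cAMP hydrolysis, with product separated using Sephadex-QAE in 10 mM HEPES-Na pH 7.0.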
Chain of PDE 7 (phosphodiesterase VII) (Q13946 whole entry): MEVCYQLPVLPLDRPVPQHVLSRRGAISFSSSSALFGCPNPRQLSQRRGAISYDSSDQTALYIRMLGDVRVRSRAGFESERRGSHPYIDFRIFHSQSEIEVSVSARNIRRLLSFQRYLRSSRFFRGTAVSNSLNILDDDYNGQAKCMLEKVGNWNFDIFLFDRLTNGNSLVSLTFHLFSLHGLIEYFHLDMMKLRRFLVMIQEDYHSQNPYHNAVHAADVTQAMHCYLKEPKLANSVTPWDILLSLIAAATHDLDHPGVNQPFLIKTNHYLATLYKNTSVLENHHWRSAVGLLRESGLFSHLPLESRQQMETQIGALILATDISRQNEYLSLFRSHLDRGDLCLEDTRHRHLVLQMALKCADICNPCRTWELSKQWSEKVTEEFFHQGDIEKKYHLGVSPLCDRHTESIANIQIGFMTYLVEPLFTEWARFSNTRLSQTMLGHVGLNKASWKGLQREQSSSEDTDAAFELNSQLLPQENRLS

The target in assay [2] is PDE 4 (phosphodiesterase IV). Put plainly: PDE 4 inhibiting effect (3H-cAMP hydrolysis, PDE 4 active fraction from Balb/c mouse liver). It counts as biochemical. Particulars: PDE 4 fraction from Balb/c mice liver, 0.064 μM cAMP, 2 hours at 25° C.; read-out: PDE4 IC50. In a few lines:
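PDE4 was taken from the soluble liver fraction of male Balb/c mice (12 weeks), purified on DEAE sepharose with a sodium acetate gradient. Inhibition was measured as hydrolysis of 3H-cAMP. The reaction was followed by Sephadex-QAE treatment in HEPES-Na pH 7.0.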

Where [3] appears, read: PDE 7 fraction from MOLT-4 cells, 0.064 μM cAMP, 10 μM rolipram, 2 hours at 25° C.

As to `COC1CCN([C@H]2CC[C@H](NC(=O)c3cc4c(C)nn(C5CCCCC5)c4s3)CC2)CC1` [Example 168, 1-Cyclohexyl-N-[trans-4-(4-methoxyl-1-piperidinyl)cyclohexyl]-3-methyl-1H-thieno[2,3-c]pyrazole-5-carboxamide], the values for the IC50 in assay [1] (setting [3]) and in assay [2] were 22 nM and 1500 nM, respectively.

As to `Cc1nn(C2CCCCC2)c2sc(C(=O)N[C@H]3CC[C@H](N4CCCNCC4)CC3)cc12` [Example 170, 1-Cyclohexyl-N-[trans-4-(1,4-diazepam-1-yl)cyclohexyl]-3-methyl-1H-thieno[2,3-c]pyrazole-5-carboxamide], the IC50 in assay [1] (setting [3]) was found to be 22 nM; in assay [2] it was 1300 nM.

Turning to `CC(=O)N1CCCN([C@H]2CC[C@H](NC(=O)c3cc4c(C)nn(C5CCCCC5)c4s3)CC2)CC1` [Example 171, N-[trans-4-(4-Acetyl-1,4-diazepam-1-yl)cyclohexyl]-1-cyclohexyl-3-methyl-1H-thieno[2,3-c]pyrazole-5-carboxamide], the IC50 in assay [1] (setting [3]) was found to be 37 nM; in assay [2] it was 1700 nM.

For `COCCN(C)[C@H]1CC[C@H](NC(=O)c2cc3c(C)nn(C4CCCCC4)c3s2)CC1` [Example 172, 1-cyclohexyl-N-{trans-4-[(2-methoxyethyl)(methyl)amino]-cyclohexyl}-3-methyl-1H-thieno[2,3-c]pyrazole-5-carboxamide], the IC50 in assay [1] (setting [3]) is 48 nM; in assay [2] it was 9400 nM.

Turning to `Cc1nn(C2CCCCC2)c2sc(C(=O)N[C@H]3CC[C@H](N4CCC(O)CC4)CC3)cc12` [Example 176, 1-Cyclohexyl-N-[trans-4-(4-hydroxy-1-piperidinyl)cyclohexyl]-3-methyl-1H-thieno[2,3-c]pyrazole-5-carboxamide], the IC50 in assay [1] (setting [3]) is 20 nM; in assay [2], 1700 nM.

`Cc1nn(C2CCCCC2)c2sc(C(=O)N[C@H]3CC[C@H](N4C[C@@H](C)O[C@@H](C)C4)CC3)cc12` [Example 177, 1-Cyclohexyl-N-{trans-4-[(2R,6S)-2,6-dimethylmorpholinyl]-cyclohexyl}-3-methyl-1H-thieno[2,3-c]pyrazole-5-carboxamide]: the IC50 was determined as 13 nM in assay [1] (setting [3]) and 1600 nM in assay [2].

In the case of `CNC1CCN([C@H]2CC[C@H](NC(=O)c3cc4c(C)nn(C5CCCCC5)c4s3)CC2)CC1` [Example 179, 1-Cyclohexyl-3-methyl-N-{trans-4-[4-(methylamino)-1-piperidinyl]-cyclohexyl}-1H-thieno[2,3-c]pyrazole-5-carboxamide], the IC50 was 3.1 nM in assay [1] (setting [3]) and 750 nM in assay [2].

Turning to `CC(=O)N(C)C1CCN([C@H]2CC[C@H](NC(=O)c3cc4c(C)nn(C5CCCCC5)c4s3)CC2)CC1` [Example 180, N-(trans-4-{4-[Acetyl(methyl)amino]-1-piperidinyl}cyclohexyl)-1-cyclohexyl-3-methyl-1H-thieno[2,3-c]pyrazole-5-carboxamide], the IC50 was determined as 10 nM in assay [1] (setting [3]) and 1400 nM in assay [2].

Take `Cc1nn(C2CCCCC2)c2sc(C(=O)N[C@H]3CC[C@H](N4CCC(N(C)C)CC4)CC3)cc12` [Example 181, 1-Cyclohexyl-N-{trans-4-[4-(dimethylamino)-1-piperidinyl]-cyclohexyl}-3-methyl-1H-thieno[2,3-c]pyrazole-5-carboxamide]: the results for the IC50 in assay [1] (setting [3]) and in assay [2] were 8.6 nM and 860 nM, respectively.

For the molecule `Cc1nn(C2CCCCC2)c2sc(C(=O)N[C@H]3CC[C@H](N4CCC(N)CC4)CC3)cc12` [Example 184, N-[trans-4-(4-Amino-1-piperidinyl)cyclohexyl]-1-cyclohexyl-3-methyl-1H-thieno[2,3-c]pyrazole-5-carboxamide], the concentration for half-maximal inhibition (IC50) worked out at 6.8 nM in assay [1] (setting [3]) and 1100 nM in assay [2].

For `Cc1nn(C2CCCCC2)c2sc(C(=O)N[C@H]3CC[C@H](N4CCNCC4)CC3)cc12` [Example 188, 1-Cyclohexyl-3-methyl-N-[trans-4-(1-piperazinyl)cyclohexyl]-1H-thieno[2,3-c]pyrazole-5-carboxamide], the concentration for half-maximal inhibition (IC50) in assay [1] (setting [3]) was determined as 6.5 nM; in assay [2], 700 nM.

In the case of `CC(=O)N1CCN([C@H]2CC[C@H](NC(=O)c3cc4c(C)nn(C5CCCCC5)c4s3)CC2)CC1` [Example 190, N-[trans-4-(4-Acetyl-1-piperazinyl)cyclohexyl]-1-cyclohexyl-3-methyl-1H-thieno[2,3-c]pyrazole-5-carboxamide], the IC50 in assay [1] (setting [3]) came to 3.5 nM; in assay [2], 1700 nM.

Consider `Cc1nn(C2CCCCC2)c2sc(C(=O)Nc3ccc(N4CCCN(C)CC4)c(F)c3)cc12` [Example 191, 1-Cyclohexyl-N-[3-fluoro-4-(4-methyl-1,4-diazepam-1-yl)phenyl]-3-methyl-1H-thieno[2,3-c]pyrazole-5-carboxamide hemifumarate], for which the IC50 in assay [1] is 8.9 nM; in assay [2] it was 980 nM.

For the molecule `Cc1nn(C2CCOCC2)c2sc(C(=O)Nc3ccc(N4CCN(C)CC4)cc3)cc12` [Example 196, 3-Methyl-N-[4-(4-methyl-1-piperazinyl)phenyl]-1-tetrahydro-2H-pyran-4-yl-1H-thieno[2,3-c]pyrazole-5-carboxamide], the half-inhibitory concentration (IC50) was determined as 90 nM in assay [1] (setting [3]) and 7500 nM in assay [2].

In the case of `Cc1nn(C2CCOCC2)c2sc(C(=O)Nc3ccc(N4CCN(C)CC4)c(F)c3)cc12` [Example 197, N-[3-Fluoro-4-(4-methyl-piperazinyl)phenyl]-3-methyl-1-tetrahydro-2H-pyran-4-yl-1H-thieno[2,3-c]pyrazole-5-carboxamide], the IC50 amounted to 79 nM in assay [1] (setting [3]) and 4400 nM in assay [2].

For `Cc1nn(C2CCCCC2)c2sc(C(=O)Nc3ccc(CN4CCOCC4)cc3)cc12` [Example 199, 1-Cyclohexyl-3-methyl-N-[4-(4-morpholinylmethyl)phenyl]-1H-thieno[2,3-c]pyrazole-5-carboxamide fumarate], the IC50 in assay [1] (setting [3]) amounted to 56 nM; in assay [2], 5800 nM.

With `Cc1nn(C2CCCCC2)c2sc(C(=O)Nc3ccc(CCN(C)C)cc3)cc12` [Example 200, 1-Cyclohexyl-N-{4-[(dimethylamino)ethyl]phenyl}-3-methyl-1H-thieno[2,3-c]pyrazole-5-carboxamide], the IC50 was 16 nM in assay [1] (setting [3]) and 1900 nM in assay [2].

`Cc1nn(C2CCCCC2)c2sc(C(=O)Nc3ccc(CCN4CCOCC4)cc3)cc12` [Example 201, 1-Cyclohexyl-3-methyl-N-{4-[2-(4-morpholinyl)ethyl]phenyl}-1H-thieno[2,3-c]pyrazole-5-carboxamide]: the IC50 in assay [1] (setting [3]) was 18 nM; in assay [2], 2200 nM.

`Cc1nn(C2CCCCC2)c2sc(C(=O)Nc3ccc(CN4C(=O)CN(C)C4=O)cc3)cc12` [Example 202, 1-Cyclohexyl-methyl-N-{4-[(3-methyl-2,5-dioxo-1-imidazolidinyl)-methyl]phenyl}-1H-thieno[2,3-c]pyrazole-5-carboxamide]: the IC50 is 33 nM in assay [1] (setting [3]) and 2400 nM in assay [2].

For the molecule `Cc1nn(C2CCCCC2)c2sc(C(=O)Nc3ccc(N4C(=O)CN(C)C4=O)cc3)cc12` [Example 203, 1-Cyclohexyl-3-methyl-N-[4-(3-methyl-2,5-dioxo-1-imidazolidinyl)-phenyl]-1H-thieno[2,3-c]pyrazole-5-carboxamide], the IC50 was 6.1 nM in assay [1] (setting [3]) and 1400 nM in assay [2].

On to `Cc1nn(C2CCCCC2)c2sc(C(=O)N[C@H]3CC[C@H](C(=O)O)CC3)cc12` [Example 205, 4-{[(1-Cyclohexyl-3-methyl-1H-thieno[2,3-c]pyrazol-5-yl)carbonyl]-amino}cyclohexane carboxylic acid], for which the IC50 in assay [1] (setting [3]) came out at 91 nM; in assay [2], 14000 nM.
